Data reported in patent US20250235451A1, “Methods of Delaying Pain Progression And Treating Prostate Cancer” (ASTRAZENECA AB, priority 2020, published 2025).

How the values were obtained:
[1] = Phase III trial NCT02987543, safety (adverse events, CTCAE v4.0) in the overall population; type: in vivo
Experimental: (§1) Additional secondary endpoints evaluated included confirmed radiographic objective response rate (ORR), time to pain progression (TTPP), overall survival (OS), prostate-specific antigen (PSA) response (PSA50 response) and circulating tumor cell (CTC) conversion rate. ORR was assessed among evaluable patients who had measurable disease at baseline as assessed by BICR using RECIST v1.1 (responses were also assessed by BICR using RECIST v1.1, were confirmed and required absence of progression on bone scan assessed by PCWG3). OS is defined as time from randomization to time point at which death due to any cause occurs. A pre-specified sensitivity analysis for the crossover effect on OS was performed. Safety was assessed in the overall population through reporting of Common Terminology Criteria for Adverse Events (CTCAE) v4.0 and collection of clinical chemistry and hematology parameters.
Blood samples for PSA assessments were collected at baseline, every 4 weeks until week 24, then every 8 weeks until study treatment discontinuation, and for CTC analyses were collected at baseline and then every 8 weeks until study treatment discontinuation. Overall survival was assessed every 12 weeks after progression. Adverse events (AEs) were graded according to the National Cancer Institute Common Terminology Criteria for Adverse Events version 4.0. […]
Statistical analysis. Efficacy data were analyzed on an intent-to-treat basis and safety data were reported for all patients who received ≥1 dose of trial treatment. […] For time-to-event endpoints, rPFS, time to pain progression, and OS, P-values were calculated using log-rank tests, stratified by stratification factors. […] The Kaplan-Meier method was used to calculate medians for each trial arm. Logistic regression models adjusted for stratification factors were used to analyze objective responses. A multiple-testing procedure was used to control for the study-wide type 1 error rate. […] For OS, the two-sided 5% level of alpha was split at the interim (0.01) and final (0.047) analyses using an O′Brien-Fleming spending function.

[2] = system: metastatic castration-resistant prostate cancer (mCRPC) with a qualifying alteration in any of 15 prespecified HRR genes; assay: Phase III trial NCT02987543, efficacy in the overall population (Cohorts A + B); type: in vivo, human
Description: (§2) Patient population. In clinical trial NCT02987543, eligible patients were male, aged ≥18 years with histological diagnosis of prostate cancer, confirmed mCRPC, whose disease had progressed after one or more treatments with new hormonal agent (NHA) (e.g., enzalutamide or abiraterone, administered for metastatic or non-metastatic castration-resistant prostate cancer, as well as metastatic hormone-sensitive prostate cancer). Prior taxane chemotherapy was allowed. Men without prior surgical castration were required to continue luteinizing-hormone-releasing hormone analog therapy. Patients had adequate organ and bone marrow function. Full eligibility criteria are provided in the trial protocol. All patients provided written informed consent. An investigational clinical trial assay, based on the FoundationOne® CDx next-generation sequencing test was used to prospectively identify patients with qualifying deleterious or suspected deleterious alterations in one or more of the 15 prespecified genes selected for their direct or indirect role in HRR: BRCA1, BRCA2, ATM, BRIP1, BARD1, CDK12, CHEK1, CHEK2, FANCL, PALB2, PPP2R2A, RAD51B, RAD51C, RAD51D, and RAD54L. Tumor testing was conducted centrally using archival or recent biopsy tissue from primary or metastatic disease. Presence of deleterious or suspected deleterious alteration by the central tumor test was required for eligibility, irrespective of the zygosity of the alteration.
(§3) Study design. This was a prospective, randomized, open-label, Phase III study. Eligible patients were included in one of two cohorts depending on their qualifying gene alteration. Cohort A included patients with BRCA1, BRCA2 and/or ATM alterations, regardless of co-occurring qualifying alterations in any of the other genes. Cohort B included patients with alterations in any of the other 12 genes. The overall population comprised patients from Cohort A and Cohort B (i.e., patients with a qualifying alteration in any of the 15 prespecified genes).
(§4) Randomization was stratified by previous taxane use (yes/no) and measurable disease (yes/no). Treatment was continued until objective radiographic disease progression assessed by a third-party vendor blinded independent central review (BICR), or unacceptable toxicity. Patients randomized to the control arm were eligible to cross over to olaparib treatment upon BICR-confirmed radiographic progression.
(§5) The primary endpoint was rPFS assessed by BICR in patients with BRCA1, BRCA2, and/or ATM alterations (Cohort A). rPFS was defined as the time from randomization until soft-tissue disease progression (by Response Evaluation Criteria in Solid Tumors (RECIST) v1.1), bone lesion progression (by Prostate Cancer Working Group 3 (PCWG3) criteria) or death. A prespecified sensitivity analysis of rPFS based on investigator assessment was performed. rPFS by BICR in the overall population was also a secondary endpoint.
as §1
(§6) Time to pain progression (TTPP) was based on Brief Pain Inventory-Short Form item 3 ('worst pain in 24 hours) and initiation of opiate analgesic use (Analgesic Quantification Algorithm score). […]

[3] = system: metastatic castration-resistant prostate cancer (mCRPC) with BRCA1, BRCA2, and/or ATM alterations; assay: Phase III trial NCT02987543, efficacy in Cohort A (alterations in BRCA1, BRCA2 and/or ATM); type: in vivo, human
Description: as §2, §3, §4, §5, §1, §6

[4] = overall population, evaluable patients
[5] = overall population, olaparib vs control

O=C(c1cc(Cc2n[nH]c(=O)c3ccccc23)ccc1F)N1CCN(C(=O)C2CC2)CC1 [Olaparib, 4-[(3-{[4-(cyclopropane-carbonyl)piperazine-1-yl]carbonyl}-4-fluorophenyl)methyl]-2H-phthalazin-1-one]
Anemia, All grades, (%) [1]: (46.5) % | Anemia, Grade ≥3, (%) [1]: (21.5) % | Any adverse event, All grades, (%) [1]: (95.3) % | Any adverse event, Grade ≥3, (%) [1]: (50.8) % | Arthralgia, All grades, (%) [1]: (9.4) % | Arthralgia, Grade ≥3, (%) [1]: (0.4) % | Back pain, All grades, (%) [1]: (13.7) % | Back pain, Grade ≥3, (%) [1]: (0.8) % | Cough, All grades, (%) [1]: (10.9) % | Decreased appetite, All grades, (%) [1]: (30.1) % | Decreased appetite, Grade ≥3, (%) [1]: (1.2) % | Diarrhea, All grades, (%) [1]: (21.1) % | Diarrhea, Grade ≥3, (%) [1]: (0.8) % | Discontinuation of intervention due to adverse event, (%) [1]: (18.0) % | Dose reduction due to adverse event, (%) [1]: (22.3) % | Dyspnea, All grades, (%) [1]: (10.2) % | Dyspnea, Grade ≥3, (%) [1]: (2.3) % | Fatal adverse event, (%) [1]: (3.9) % | Fatigue & asthenia, All grades, (%) [1]: (41.0) % | Fatigue & asthenia, Grade ≥3, (%) [1]: (2.7) % | Interruption of intervention due to adverse event, (%) [1]: (44.9) % | Nausea, All grades, (%) [1]: (41.4) % | Nausea, Grade ≥3, (%) [1]: (1.2) % | Peripheral edema, All grades, (%) [1]: (12.5) % | Urinary tract infection, All grades, (%) [1]: (7.0) % | Urinary tract infection, Grade ≥3, (%) [1]: (1.6) % | Vomiting, All grades, (%) [1]: (18.4) % | Vomiting, Grade ≥3, (%) [1]: (2.3) % | patients reporting new primary malignancies [1]: 1 n | pulmonary embolism events, % [1]: 4.3% | pulmonary embolism events, number ([1]; none were fatal): 11 | Median TTPP (months), sensitivity analysis including any death as an event ([2]; Cohorts A + B (overall population)): 11.89 months | TTPP Pain severity, Events (%) ([2]; overall population): 9.4% | TTPP Pain severity, Events n ([2]; overall population): 24 n | TTPP Worst pain, Events (%) ([2]; overall population): 12.5% | TTPP Worst pain, Events n ([2]; overall population): 32 n | Time to Opiate use, Events (%) ([2]; overall population): 37.1% | Time to Opiate use, Events n ([2]; overall population): 65 n | Time to Opiate use, Median (m) ([2]; overall population): 18.0 m | median rPFS by BICR ([2]; overall population): 5.82 months | TTPP Pain severity, 6-month rate (%) ([2]; overall population, 6 months): 88.7% | TTPP Worst pain, 6-month rate (%) (free of pain progression) ([2]; overall population, 6 months): 85.2% | Time to Opiate use, 6-month rate (%) ([2]; overall population, 6 months): 25% | TTPP Pain severity, 12-month rate (%) ([2]; overall population, 12 months): 81.0% | TTPP Worst pain, 12-month rate (%) ([2]; overall population, 12 months): 76.3% | Time to Opiate use, 12-month rate (%) ([2]; overall population, 12 months): 41% | Median OS at interim analysis ([2]; overall population, data maturity 41%): 17.51 months | CTC conversion [2, 4]: 26.8% | PSA50 response [2, 4]: 30.0% | confirmed objective response rate [2, 4]: 21.7% | TTPP Pain severity, HR [2, 5]: 0.71 | TTPP Worst pain, HR [2, 5]: 0.64 | Time to Opiate use, HR [2, 5]: 0.67 | median progression free survival greater than for subjects receiving the standard of care treatment ([2]; overall subject population): at least 2 months | Median TTPP (months), sensitivity analysis including any death as an event [3]: 17.22 months | median OS (interim analysis) ([3]; data maturity 38%): 18.50 months | CTC conversion ([3]; evaluable patients): 29.9% | PSA50 response ([3]; evaluable patients): 43.1% | confirmed objective response rate ([3]; evaluable patients): 33.3% | reduction in risk for disease progression or death ([3]; olaparib vs control): 66% | median rPFS (radiographic progression-free survival) by BICR ([3]; primary endpoint): 7.39 months
